This passage reports Activity results from ChEMBL document CHEMBL1649549, “Stability of peroxide antimalarials in the presence of human hemoglobin” (Antimicrob Agents Chemother, 2009).

Data set [1] in a line: Stability of compound in presence water assessed as pseudo-first order degradation rate constant at 10 uM at 20degC over 24 hrs. In kind it is physicochemical. Particulars: buffer.
Data set [2] can be described thus: Stability of compound in presence of oxyhemoglobin assessed as pseudo-first order degradation rate constant at 10 uM at 20degC over 24 hrs. In kind it is ADME.
Data set [3] is described as follows: Stability of compound in presence of […] assessed as pseudo-first order degradation rate constant at 10 uM at 20degC over 24 hrs. In kind it is ADME.

For the molecule `O=C(O)C[C@H]1CC[C@]2(CC1)OO[C@]1(O2)C2CC3CC(C2)CC1C3`, the values for the Activity in data set [1], in data set [2] and in data set [3] were 0.006 h⁻¹, 0.01 h⁻¹ and 0.006 h⁻¹, respectively.
On to `CO[C@H]1O[C@@H]2O[C@@]3(C)CC[C@H]4[C@H](C)CC[C@@H]([C@H]1C)[C@@]24OO3` [ARTEMETHER], for which the results for the Activity in data set [1], in data set [2] and in data set [3] were 0.002 h⁻¹, 0.007 h⁻¹ and 0.002 h⁻¹, respectively.
On to `C[C@@H]1CC[C@H]2[C@@H](C)C(=O)O[C@@H]3O[C@@]4(C)CC[C@@H]1[C@]32OO4` [ARTEMISININ], for which the Activity in data set [1] was 0.0004 h⁻¹; in data set [2] it was 0.008 h⁻¹; in data set [3] it was 0.003 h⁻¹.
On to `C[C@H]1[C@@H](O)O[C@@H]2O[C@@]3(C)CC[C@H]4[C@H](C)CC[C@@H]1[C@@]24OO3` [ARTENIMOL], for which the Activity in data set [1] was determined as 0.00001 h⁻¹; in data set [2], 0.017 h⁻¹; in data set [3] it was 0.004 h⁻¹.
On to `CC(C)(N)CNC(=O)C[C@H]1CC[C@]2(CC1)OO[C@]1(O2)C2CC3CC(C2)CC1C3` [OZ277], for which the Activity in data set [1] turned out to be 0.015 h⁻¹; in data set [2], 0.01 h⁻¹; in data set [3], 0.013 h⁻¹.
